Activity calls are given as the source filed them. No cut-off for these calls is given here.
Tests used:
[1] = molecular target: T1, Amyloid-beta precursor protein (Homo sapiens, UniProt P05067); experiment: Inhibition of amyloid beta1-42 (unknown origin) aggregation assessed as amyloid fibril formation tested at 1:1 compound to peptide ratio after 17 hrs by thioflavin T fluorescence method; design: scale not given: the % may be the effect or the level left
[2] = molecular target: T1, Amyloid-beta precursor protein; experiment: Inhibition of amyloid beta1-42 (unknown origin) aggregation assessed as reduction in amyloid fibril formation at 40 uM after 5 days by Transmission electron microscopy
[3] = molecular target: T1, Amyloid-beta precursor protein; experiment: Inhibition of amyloid beta1-42 (unknown origin) aggregation assessed as amyloid fibril formation tested after 17 hrs by thioflavin T fluorescence method
[4] = molecular target: T1, Amyloid-beta precursor protein; experiment: Inhibition of amyloid beta1-42 (unknown origin) aggregation assessed as reduction in large aggregates at 100 uM after 20 mins and 24 hrs by dynamic light scattering method
[5] = molecular target: T1, Amyloid-beta precursor protein; experiment: Inhibition of amyloid beta1-42 (unknown origin) aggregation assessed as reduction in large aggregates at 400 uM after 20 mins and 2 hrs by size exclusion chromatography test
[6] = molecular target: T1, Amyloid-beta precursor protein; experiment: Inhibition of amyloid beta1-40 (unknown origin) aggregation

T1 sequence (P05067 whole entry): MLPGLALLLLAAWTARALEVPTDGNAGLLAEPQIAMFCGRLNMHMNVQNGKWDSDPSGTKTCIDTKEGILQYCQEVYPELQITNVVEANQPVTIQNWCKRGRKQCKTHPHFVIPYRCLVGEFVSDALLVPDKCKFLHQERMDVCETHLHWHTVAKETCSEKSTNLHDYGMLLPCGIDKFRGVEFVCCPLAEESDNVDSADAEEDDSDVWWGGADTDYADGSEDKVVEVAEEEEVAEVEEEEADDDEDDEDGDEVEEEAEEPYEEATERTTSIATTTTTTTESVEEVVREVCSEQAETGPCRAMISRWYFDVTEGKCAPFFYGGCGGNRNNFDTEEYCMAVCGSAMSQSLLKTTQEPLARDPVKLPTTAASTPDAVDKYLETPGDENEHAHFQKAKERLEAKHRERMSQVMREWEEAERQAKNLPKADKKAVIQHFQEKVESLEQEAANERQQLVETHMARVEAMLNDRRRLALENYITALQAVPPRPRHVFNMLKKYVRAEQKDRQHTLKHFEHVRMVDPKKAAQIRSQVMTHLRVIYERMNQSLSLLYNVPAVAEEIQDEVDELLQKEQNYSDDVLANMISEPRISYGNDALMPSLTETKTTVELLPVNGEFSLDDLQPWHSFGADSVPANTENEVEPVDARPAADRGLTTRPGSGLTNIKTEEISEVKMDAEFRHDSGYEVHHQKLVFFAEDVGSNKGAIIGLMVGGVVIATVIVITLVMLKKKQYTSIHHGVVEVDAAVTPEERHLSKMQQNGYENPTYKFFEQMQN

SMILES	Activity [1] [%]	inhibition of amyloid fibril formation (active/inactive) [2]	IC50 [3] [µM]	inhibition [4]	Activity [5]	IC50 [6] [µM]
COc1c(-c2ccc(O)c(O)c2)oc2c(O)c(O)ccc2c1=O	21	Active	5.4	Active	Active	–
O=C1/C(=C/c2ccc(O)c(O)c2)Oc2c1ccc(O)c2O	18.5	Active	2.7	–	–	–
O=c1cc(-c2ccc(O)c(O)c2)oc2cc(O)cc(O)c12 [LUTEOLIN]	14.4	Active	6.4	–	–	–
O=C(O[C@@H]1Cc2c(O)cc(O)cc2O[C@@H]1c1cc(O)c(O)c(O)c1)c1cc(O)c(O)c(O)c1 [EPIGALOCATECHIN GALLATE]	16	Active	4.6	–	–	3
